Laboratory results from patent US20260297105A1, “RAF-MEK PROTEIN COMPLEX MODULATORS AND METHODS OF USE THEREOF” (GANDEEVA THERAPEUTICS, INC., priority 2023, published 2026).

Tests used:
p-ERK1/2 in HCT116 cells = experiment: AlphaLISA p-ERK assay, cellular inhibition of ERK phosphorylation in HCT116 cells; type: cell-based; conditions: Homo sapiens, HCT-116, 2 hours treatment, PMA stimulation 30 mins
Procedure: (§1) Cell culture: HCTI 16, HT-29, and NCI-H292 cells were acquired from American Type Culture Collection (ATCC). HCT116 and HT-29 cells were maintained in ATCC-formulated McCoy's 5a Medium Modified supplemented with 10% fetal bovine serum, NCI-H292 cells were cultured in ATCC formulated RPMI-1640 supplemented with 10% fetal bovine serum. All cells were maintained at 37° C., 5% CO2.
Efficacy of exemplary compounds in cellular inhibition of ERK phosphorylation: Phosphorylation status of ERK1/2 (p-ERK) was used as a readout for inhibition of BRAF-MEK pathway. p-ERK was detected using an immunoassay for quantitative detection of phospho-ERK 1/2 (phosphorylated on Thr202/Tyr204 in ERK1, or Thr185/Tyr187 in ERK2), such as the AlphaLISA® SureFire® Ultra™ p-ERK1/2 (Thr202/Tyr204) kit (Perkin Elmer). HCT116 cells were plated at 10,000 cells per well in 384-well TC-treated plates (Coming). Cells were plated for 24 hours, the medium was then aspirated and cells were treated with vehicle (DMSO) or test compounds (0.1% DMSO in final volume) prepared in serum free, phenol red free medium for 2 hours. Following treatment, cells were stimulated with PMA (1.25 μM/well) for 30 mins after which the medium was aspirated, and the cells were lysed for 10 mins with 1× lysis buffer supplemented with Halt Protease and Phosphatase Inhibitor Cocktail (Thermo Fisher). The lysate was transferred to a 384 well Alpha-plate (PerkinElmer) and incubated for 1 hour with acceptor bead mix followed by 1 hour incubation with donor bead mix. After incubation, the plate was read on a Cytation5 microplate reader (Agilent). % inhibition as a function of compound concentration from 3 replicate wells was fit with a 4-parameter logistic curve using GraphPad Prism or CDD Vault to derive IC50 values.
(§2) In this table, for the BRAF ADP Glo kinase assay, “A” indicates IC50 of less than 5 nM; “B” indicates IC50 of between 5 nM to 50 nM; and “C” indicates IC50 of between 50 nM to 500 nM. “D” indicates IC50 of greater than 500 nM. For the BRAF-MEK TR-FRET assay, “A” indicates EC50 of less than 50 nM; “B” indicates EC50 of between 50 nM to 200 nM; and “C” indicates EC50 of between 200 nM to 1 μM. “D′” indicates EC50 of greater than 1 μM. For the AlphaLisa P-ERK assay, “A” indicates IC50 of less than 1 nM; “B” indicates IC50 of between 1 nM to 10 nM; and “C” indicates IC50 of between 10 nM to 100 nM. “D” indicates IC50 of greater than 100 nM. For the cell viability assay, “A” indicates IC50 of less than 1 nM; “B” indicates IC50 of between 1 nM to 10 nM; and “C” indicates IC50 of between 10 nM to 100 nM. “D” indicates IC50 of greater than 100 nM.

MEK1 = target: T1, MEK1 (Homo sapiens, UniProt Q02750); experiment: MEK1 kinase cascade assay (ADP-Glo), inhibition of MEK1 kinase activity; type: biochemical; conditions: 25 nM BRAF, 6.25 nM MEK1, 0.5 μM ERK, 1 mM ATP; 20 min preincubation, 1 hr at 25° C.; read-out: BRAF ADP Glo kinase assay V3 (IC50)
T1 construct: purchased SignalChem M02-14H
Procedure, shortened: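 Compounds were preincubated 20 mins at 25° C with 25 nM BRAF(445-723) in 10 mM HEPES pH 7.5, 5 mM MgCl2, 2 mM CHAPS, 1 mM DTT, then 6.25 nM MEK1, 0.5 μM ERK1 and 1 mM ATP were added for 1 hr at 25° C, with 1% DMSO. ADP-Glo luminescence was normalized to DMSO and 1 μM Trametinib; IC50 came from 4-parameter fits of duplicates.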

BRAF-MEK1 = experiment: BRAF-MEK TR-FRET assay, stabilization of MEK1 and BRAF interaction; type: binding; conditions: 4 nM BRAF, 10 nM MEK, 100 μM ATP; 1 hr at 25° C.; read-out: BRAF-MEK TR-FRET Assay (EC50, fold stabilization)
Procedure, shortened: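 His-MEK1 (full-length, E. coli) at 10 nM with GST-BRAF at 4 nM, 1 h at 25° C in pH 7.5 Tris buffer with 5 mM MgCl2 and 100 μM ATP; anti-His-Tb/anti-GST-XL665 added for 1 h more. 665/620 FRET ratio over DMSO gives fold stabilization; EC50 from 4-parameter fit, duplicate wells.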

NCI-H292 cells = experiment: Cell viability assay (CellTiter-Glo), NCI-H292; type: cell-based; conditions: Homo sapiens, 72 hrs, read-out: Cell Viability Assay: IC50 Determination NCI-H292
Procedure: as §1
Efficacy of exemplary compounds in inhibition of cell viability: HCT116 and HT-29 cells were plated at 4,000 cells per well and NCI-H292 cells were plated at 2,000 cells per well in their respective media in 384-well white, TC-treated plates (Corning). After 24 hours of incubation, the cells were treated with vehicle (DMSO) or test compounds (0.1% DMSO in final volume) for 72 hrs. The plate was equilibrated at room temperature for 10 mins followed by addition of a 1:1 volume of CellTiter-Glo® reagent (Promega). The contents were mixed for 2 mins on an orbital shaker to induce lysis. The plate was incubated at room temperature for 10 mins to stabilize luminescent signal before measuring luminescence on a Cytation5 microplate reader (Agilent). % inhibition as a function of compound concentration from 3 replicate wells was fit with a 4-parameter logistic curve using GraphPad Prism or CDD Vault to derive IC50 values.
as §2

T1 sequence (Q02750 whole entry): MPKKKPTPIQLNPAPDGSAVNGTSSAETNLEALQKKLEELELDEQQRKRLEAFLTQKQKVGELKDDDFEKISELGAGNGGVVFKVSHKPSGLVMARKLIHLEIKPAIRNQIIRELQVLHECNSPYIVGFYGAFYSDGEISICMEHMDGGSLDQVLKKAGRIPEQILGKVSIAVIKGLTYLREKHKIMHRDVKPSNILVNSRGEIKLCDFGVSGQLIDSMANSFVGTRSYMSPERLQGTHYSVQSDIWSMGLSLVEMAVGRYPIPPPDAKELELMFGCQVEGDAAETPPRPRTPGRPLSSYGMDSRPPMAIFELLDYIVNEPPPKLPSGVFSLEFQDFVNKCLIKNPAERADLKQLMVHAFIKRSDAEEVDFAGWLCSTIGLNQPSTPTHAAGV
T1 sequence (P15056 445-723 partner limits assumed): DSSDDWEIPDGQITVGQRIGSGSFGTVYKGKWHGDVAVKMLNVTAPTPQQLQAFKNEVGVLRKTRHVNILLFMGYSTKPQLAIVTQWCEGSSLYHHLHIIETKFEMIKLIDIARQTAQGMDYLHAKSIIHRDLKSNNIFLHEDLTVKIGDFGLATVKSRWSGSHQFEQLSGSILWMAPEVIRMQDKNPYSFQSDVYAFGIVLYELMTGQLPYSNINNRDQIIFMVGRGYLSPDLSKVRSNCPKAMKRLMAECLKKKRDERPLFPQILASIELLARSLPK

SMILES	IC50 (p-ERK1/2 in HCT116 cells) [µM]	IC50 (MEK1) [µM]	EC50 (BRAF-MEK1) [µM]	IC50 (NCI-H292 cells) [µM]
CNS(=O)(=O)Nc1cccc(CN2C(=O)Oc3cc(Oc4cccnn4)c(F)cc3C23CCC3)c1F [Compound 19, 6-fluoro-3-{1[2-fluoro-3-(methylaminosulfonylamino)phenyl]methyl}-7-(3-pyridazinyloxy)-2H,3H-spiro[1,3-benzoxazine-4,1′-cyclobutan]-2-one]	< 0.001	0.005 to 0.05	< 0.05	
CNS(=O)(=O)Nc1nccc(CN2C(=O)Oc3cc(Oc4cccnn4)ccc3[C@@H]2C)c1F (single isomer, unassigned) [Compound 22]	0.01 to 0.1	0.005 to 0.05	0.05 to 0.2	
CN(C)C(=O)Oc1ccc2c(c1)OC(=O)N(Cc1cccc(CN3CCOC3=O)c1F)C2 [Compound 21, 3-(2-fluoro-3-((2-oxooxazolidin-3-yl)methyl)benzyl)-2-oxo-3,4-dihydro-2H-benzo[e][1,3]oxazin-7-yl dimethylcarbamate]	0.001 to 0.01	0.005 to 0.05	0.2 to 1	
CN(C)C(=O)Oc1cc(F)c2c(c1)OC(=O)N(Cc1cccc(NS(=O)(=O)C3CC3)c1F)C2 [Compound 102, 3-(3-(cyclopropanesulfonamido)-2-fluorobenzyl)-5-fluoro-2-oxo-3,4-dihydro-2H-benzo[e][1,3]oxazin-7-yl dimethylcarbamate]		0.005 to 0.05	0.05 to 0.2	0.001 to 0.01
CNS(=O)(=O)Nc1cccc(CN2C(=O)Oc3cc(Oc4cccnn4)ccc3C2(C)C)c1F [Compound 51, 3-({2-fluoro-3-[(methylsulfamoyl)amino]phenyl}methyl)-4,4-dimethyl-7-(pyridazine-3-yloxy)-3,4-dihydro-2H-1,3-benzoxazin-2-one]		0.005 to 0.05	0.2 to 1	0.01 to 0.1
CNS(=O)(=O)Nc1cccc(CN2C(=O)Oc3cc(OC(=O)N(C)C)ccc3C23CCC3)c1F [Compound 38, 3-({2-fluoro-3-[(methylsulfamoyl)amino]phenyl}methyl)-2-oxo-2,3-dihydrospiro[1,3-benzoxazine-4,1′-cyclobutan]-7-yl N,N-dimethylcarbamate]		< 0.005	< 0.05	< 0.001
CNS(=O)(=O)Nc1cccc(CN2C(=O)Oc3c(ccc(OC(=O)N(C)C)c3F)C23COC3)c1F [Compound 77, 8-fluoro-3-({2-fluoro-3-(methylsulfamoyl)amino]phenyl}methyl)-2-oxo-2,3-dihydrospiro[1,3-benzoxazine-4,3′-oxetan]-7-yl N,N-dimethyl carbamate]		0.005 to 0.05	0.05 to 0.2	< 0.001
CN(C)C(=O)Oc1ccc2c(c1)OC(=O)N(Cc1cccc(NS(=O)(=O)N3CCC(F)C3)c1F)C2 (stereo not drawn) [Compound 113, 3-(2-fluoro-3-((3-fluoropyrrolidine)-1-sulfonamido)benzyl)-2-oxo-3,4-dihydro-2H-benzo[e][1,3]oxazin-7-yl dimethylcarbamate]		0.005 to 0.05	0.2 to 1	0.001 to 0.01
CNS(=O)(=O)Nc1cccc(CN2Cc3cc(C)c(OC(=O)N(C)C)cc3OC2=O)c1F [Compound 112, 3-(2-fluoro-3-((N-methylsulfamoyl)amino)benzyl)-6-methyl-2-oxo-3,4-dihydro-2H-benzo[e][1,3]oxazin-7-yl dimethylcarbamate]		< 0.005	0.2 to 1	0.001 to 0.01
CNS(=O)(=O)Nc1nccc(CN2C(=O)Oc3cc(Oc4nccnn4)c(F)cc3C23CCC3)c1F [Compound 166, 6-fluoro-3-{[3-fluoro-2-(methylaminosulfonylamino)-4-pyridyl]methyl}-7-(1,2,4-triazin-3-yloxy)-2H,3H-spiro[1,3-benzoxazine-4,1′-cyclobutan]-2-one]		0.005 to 0.05	< 0.05	0.001 to 0.01
CNS(=O)(=O)Nc1nccc(CN2C(=O)Oc3cc(Oc4cccnn4)ccc3C23CCC3)c1F [Compound 20, 3-{[3-fluoro-2-(methylaminosulfonylamino)-4-pyridyl]methyl}-7-(3-pyridazinyloxy)-2H,3H-spiro[1,3-benzoxazine-4,1′-cyclobutan]-2-one]	0.001 to 0.01	< 0.005	< 0.05	
CNS(=O)(=O)Nc1cccc(CN2C(=O)Oc3cc(OC(=O)N(C)C)c(Cl)cc3[C@@H]2C)c1F [Compound 108, (S)-6-chloro-7-(dimethylaminocarbonyloxy)-3-{[2-fluoro-3-(methylaminosulfonylamino)phenyl]methyl}-4-methyl-3,4-dihydro-2H-1,3-benzoxazin-2-one]		0.005 to 0.05	0.05 to 0.2	< 0.001
CNS(=O)(=O)Nc1nccc(CN2C(=O)Oc3cc(Oc4cccnn4)c(F)cc3C23COC3)c1F [Compound 18, 6-fluoro-3-{[3-fluoro-2-(methylaminosulfonylamino)-4-pyridyl]methyl}-7-(3-pyridazinyloxy)-2H,3H-spiro[1,3-benzoxazine-4,3′-oxetan]-2-one]	0.01 to 0.1	0.005 to 0.05	< 0.05	
O=C1Oc2cc(Oc3ncco3)c(F)cc2C2(CCC2)N1Cc1ccnc(NS(=O)(=O)C2CC2)c1F [Compound 170, (cyclopropylsulfonyl)[3-fluoro-4-({6-fluoro-7-(1,3-oxazol-2-yloxy)-2-oxo-2H,3H-spiro[1,3-benzoxazine-4,1′-cyclobutan]-3-yl}methyl)-2-pyridyl]amine]		0.005 to 0.05	0.2 to 1	0.01 to 0.1
CNS(=O)(=O)Nc1cccc(CN2C(=O)Oc3c(ccc(OC(=O)N(C)C)c3F)[C@@H]2C)c1F (single isomer, unassigned) [Compound 103, (S)-8-fluoro-3-(2-fluoro-3-((N-methylsulfamoyl)amino)benzyl)-4-methyl-2-oxo-3,4-dihydro-2H-benzo[e][1,3]oxazin-7-yl dimethylcarbamate or (R)-8-fluoro-3-(2-fluoro-3-((N-methylsulfamoyl)amino)benzyl)-4-methyl-2-oxo-3,4-dihydro-2H-benzo[e][1,3]oxazin-7-yl dimethylcarbamate]		0.005 to 0.05	0.2 to 1	0.001 to 0.01
CNS(=O)(=O)Nc1nccc(CN2C(=O)Oc3cc(Oc4ncco4)c(F)cc3C23CCC3)c1F [Compound 165, 6-fluoro-3-{[3-fluoro-2-(methylaminosulfonylamino)-4-pyridyl]methyl}-7-(1,3-oxazol-2-yloxy)-2H,3H-spiro[1,3-benzoxazine-4,1′-cyclobutan]-2-one]		< 0.005	< 0.05	0.001 to 0.01
